{"source": "patent US6964974B2", "about": "“2,3-oxidosqualene-lanosterol cyclase inhibitors” (Hoffmann-La Roche Inc., priority 2000, dated 2005)"}
{"smiles": "CCCN(C)CCCCC1CCN(S(=O)(=O)c2ccc(C(F)(F)F)cc2)CC1", "note": "[Example 20.1, Methyl-propyl-{4-[1-(4-trifluoromethyl-benzenesulfonyl)-piperidin-4-yl]-butyl}-amine]", "values": [{"measurement": "melting point", "value": "73 to 74.8", "unit": "°C"}]}
